Measurements as given in patent publication US8445500B2, “Pesticidal compositions” (Dow AgroSciences, LLC., priority 2007, dated 2013).

Experiments:
Assay type in all cases: in vivo
[1] = tested on: Tobacco Budworm Heliothis virescens; assay: Insecticidal assay 2, tobacco budworm, 96-well diet plate; details: H. virescens eggs and early instars; 2 microliters of 4 micrograms per microliter in DMSO per well on diet; 200 ppm piperonyl butoxide co-applied; assessed after 6 days at 29° C.
Procedure: 2. Insecticidal Assay for Tobacco Budworm Heliothis virescens:
Objective: To evaluate the insecticidal activity of compounds against H. virescens eggs and early instars through contact and ingestion.
Test unit preparation: A robotic system dispenses 150 microliters of freshly prepared artificial lepidopteran diet into each well of a 96-well microtiter plate. The plates are held overnight at 22° C. to allow proper cooling and drying prior to treatment and infestation.
Compound formulation and application: Compounds are formulated in dimethyl sulfoxide at 4-micrograms per microliter. A robotic system automatically dispenses 2 microliters of each of the compound solutions into individual wells of the prepared test units. Each treatment is replicated 6 times. As part of the application process, a 200 ppm concentration of the commonly used synergist, piperonyl butoxide is co-applied to each well to increase the sensitivity of this assay. After application, plates are allowed to dry 5-6 hours in a fume hood. When dry, the plates are covered with a matching lid and held overnight in a sealed container prior to infestation.
Infestation: One day after application, each treated well is infested with 3-5, tobacco budworm eggs.
Holding and assessment: Once infested, the plates are covered with a clear plastic lid. The plates are stacked and held in an incubator at 29° C. […]

[2] = tested on: Yellow Fever Mosquito Aedes aegypti; assay: Insecticidal assay 4, yellow fever mosquito larvae, 96-well plate; details: A. aegypti first instar larvae in water; 1.5 microliters of 4 micrograms per microliter in DMSO per well; assessed after 72 hours at 22° C.
Description: 4. Insecticidal Assay for Yellow Fever Mosquito Aedes aegypti:
Objective: To evaluate the insecticidal activity of compounds against A. aegypti larvae through contact and ingestion.
(§1) Test unit preparation: Empty, 96-well microtiter plates are loaded onto a robotic dispensing system prior to application.
Formulation and application: Compounds are formulated in dimethyl sulfoxide at 4-micrograms per microliter. A robotic system dispenses 1.5 microliters of each formulated experimental solution into each well of an empty, 96-well microtiter plate. Each treatment is replicated 3 times.
Infesting: Subsequent to application, recently hatched, mosquito larvae are suspended in water containing 0.4% mosquito diet (1:3 mix of brewers yeast to liver powder). A robotic system dispenses aliquots of this aqueous solution containing 5-8 first instar mosquitoes into each well of the treated plates.
Holding and assessment: After infestation, the plates are covered with a matching clear plastic lid. Infested plates are stacked and held in an incubator at 22° C. for 72 hours. At assessment, cells are examined by means of a dissecting microscope for insecticidal effects.

[3] = tested on: Root-Knot Nematode Meloidogyne incognita; assay: Insecticidal assay 5, root-knot nematode, 96-well plate with foxtail millet; details: M. incognita eggs; 5 micrograms of compound per well; soil/polymer media with foxtail millet seeds; assessed after 7 days at 27° C.
Description: 5. Insecticidal Assay for Root-Knot Nematode Meloidogyne incognita:
Objective: To evaluate the insecticidal activity of compounds against M. incognita through contact and ingestion.
as §1
Formulation and application: A robotic system dispenses 25 microliters of ethanol and 5 micrograms of compound, diluted in dimethyl sulfoxide, into each well of a 96-well flat-bottomed, microtiter plate. There are 3 replicates per treatment. The plates are held 24 hours to allow proper drying prior to further preparation and infestation.
Additional test unit preparation and infestation: After drying, 16 milligrams of media consisting of 2 parts fine soil and 1 part absorbent polymer is added to each well of the treated 96-well plates. Once the media is in place, a 200 microliter aqueous suspension of rootknot nematode eggs is added to each well forming a gelatinous substrate. Into each of these wells are distributed 10 foxtail millet Seteria italica seeds. Following this “planting” an identical plate is sealed to the top of the treated plate to allow space for the millet to grow.
Holding and assessment: Once the lids are in place, the plates are held at 27° C. and 75% relative humidity under bright indirect lights. […]

[4] = tested on: Large Milkweed Bug Oncopeltus fasciatus; assay: Insecticidal assay 6, large milkweed bug, 96-well diet plate; details: O. fasciatus second instar; 2 microliters of 4-microgram/microliter in DMSO per well on diet; assessed after 6 days at 29° C.
Procedure: 6. Insecticidal Assay for Large Milkweed Bug Oncopeltus fasciatus:
Objective: To assess the insecticidal activity of compounds against O. fasciatus through contact and ingestion.
Test unit preparation: A robotic system dispenses 100 microliters of freshly prepared artificial diet into each well of a 96-well microtiter plate. The plates are held overnight at 22° C. to allow proper cooling and drying prior to treatment and infestation.
Compound formulation and application: Compounds are formulated in dimethyl sulfoxide at 4-microgram/microliter. A robotic system automatically dispenses 2 microliters of each of the experimental compound solutions into individual wells of the prepared test units. There are 6 replicates per treatment. After application, plates are allowed to dry 5-6 hours in a fume hood. When dry, the plates are covered with a matching lid and held overnight in a sealed container prior to infestation.
Infestation: One day after application, each treated well is infested with 3-5 second instar milkweed bugs.
Holding and assessment: Once infested, the plates are covered with a clear plastic lid. The plates are then stacked and held in an incubator at 29° C. After 6 days, each well is examined by means of a dissecting microscope for insecticidal effect.

[5] = tested on: Beet Armyworm Spodoptera exigua; assay: Insecticidal assay 7, beet armyworm, diet cups; details: S. exigua second instar; 250 microliters of 400 ppm and 25 ppm solutions on diet in cups; assessed 5 days after infestation
Procedure: 7. Insecticidal Assay for Beet Armyworm Spodoptera exigua:
Objective: To assess the insecticidal activity of compounds against S. exigua, through contact and ingestion.
(§2) Test unit preparation: 8 milliliters of lepidopteran diet is dispensed into one ounce clear plastic portion cups. The diet is allowed to cool before storage or use.
(§3) Formulation and application: Eight milligrams of technical compound is dissolved in 20 milliliters of 2:1 acetone:tap water diluent to form a 400 ppm solution. An aliquot of this solution is also used to prepare a 25 parts per million concentration. 250 microliters of each solution is then pipetted onto the surface the diet in each cup. Each treatment is replicated 10 times.
Infestation: Once the treated cups have dried, a single second-instar beet armyworm is placed on the treated diet in each cup.
(§4) Holding and assessment: Treated and infested diet cups or are capped and then held in a chamber at 25° C. and 50% relative humidity. 14-hours light:10-hours dark. 5 days after infestation the larvae are assessed for insecticidal effects.

[6] = tested on: Tobacco Budworm Heliothis virescens; assay: Insecticidal assay 8, tobacco budworm, diet cups; details: H. virescens second instar; 250 microliters of 400 ppm and 25 ppm solutions on diet in cups; assessed 5 days after infestation
Procedure: 8. Insecticidal Assay for Tobacco Budworm Heliothis virescens:
Objective: To assess the insecticidal activity of compounds against H. virescens through contact and ingestion.
as §2, §3
Infestation: Once the treated cups have dried, a single second-instar tobacco budworm is placed on the treated diet in each cup.
as §4

[7] = tested on: Cabbage Looper Tricoplusia ni; assay: Insecticidal assay 9, cabbage looper, cabbage leaf disc dip; details: T. ni second instar; cabbage leaf discs dipped in 400 ppm and 25 ppm solutions; assessed 5 days after infestation
Procedure: 9. Insecticidal Assay for Cabbage Looper Tricoplusia ni:
Objective: To assess the insecticidal activity of compounds against T. ni through contact and ingestion.
Formulation and application: Eight milligrams of technical compound is dissolved in 20 milliliters of 2:1 acetone:tap water diluent to form a 400 ppm solution. An aliquot of this solution is also used to prepare a 25 parts per million concentration. 3.5 centimeter diameter leaf discs cut from cabbage leaves are dipped into each solution until thoroughly wet. Each treatment is replicated 10 times. After air-drying, the treated discs are placed individually into one-ounce plastic cups.
Infestation: Once the leaf discs have dried, a single second instar cabbage looper is place on the cabbage disc in each cup.
Holding and assessment: Treated and infested cups or are capped and then held in a chamber at 25° C. and 50% relative humidity, 14-hours light:10-hours dark. 5 days after infestation the larvae are assessed for insecticidal effects.

[8] = tested on: Beet Armyworm Spodoptera exigua; assay: Insecticidal assay 10, beet armyworm, 128 well bioassay trays; details: S. exigua second instar; 50 microliters of 1 milligram per milliliter stock or serial dilutions on diet per well; assessed 5 days after infestation
Procedure: 10. Insecticidal Assay for Beet Armyworm Spodoptera exigua:
Objective: To assess the insecticidal activity of compounds against S. exigua through contact and ingestion.
(§5) Test unit preparation: 128 well bioassay trays are prepared by injecting each well with approximately 1 milliliter of prepared lepidopteran diet. Trays are allowed to dry prior to use.
(§6) Compound formulation and application: A 1 milligram per milliliter, stock solution is prepared for each compound by adding 2 milliliters of acetone/water diluent (9:1) to a vial containing 2 milligrams of technical compound. From this stock solution, additional doses may be produced through serial dilution. Once the appropriate concentrations have been prepared, 50 microliters of each solution is applied to the surface of the diet in each of 8 wells. Upon completing application, the trays are allowed to dry.
Infestation: Once dry, each well is infested with a single second instar beet armyworm. The infested wells are sealed with self sticking, ventilated plastic covers.
(§7) Holding and assessment: After infestation and sealing, the trays are placed in a growth chamber at 25 C and 40% relative humidity. 5 days after infestation the larvae are assessed for insecticidal effects.

[9] = tested on: Corn Earworm Helicoverpa zea; assay: Insecticidal assay 11, corn earworm, 128 well bioassay trays; details: H. zea second instar; 50 microliters of 1 milligram per milliliter stock or serial dilutions on diet per well; assessed 5 days after infestation
Procedure: 11. Insecticidal Assay for Corn Earworm Helicoverpa zea:
Objective: To assess the insecticidal activity of compounds against H. zea, through contact and ingestion.
as §5, §6
Infestation: Once dry, each well is infested with a single second instar corn earworm. Infested wells are sealed with self sticking, ventilated plastic covers.
as §7

[10] = tested on: German Cockroach Blattella germanica; assay: Insecticidal assay 12, German cockroach, 96-well diet plate; details: B. germanica second instar; 2 microliters of 4-microgram/microliter in DMSO per well on diet; assessed after 6 and 13 days at 29° C.
Procedure: 12. Insecticidal Assay for German Cockroach Blattella germanica: Objective: Assessment of the insecticidal activity of compounds against B. germanica through contact and ingestion. Test unit preparation: A robotic system dispenses 100 microliters of freshly prepared artificial diet into each well of a 96-well microtiter plate. The plates are held overnight at 22° C. to allow proper cooling and drying prior to treatment and infestation. Compound formulation and application: Compounds are formulated in dimethyl sulfoxide at 4-microgram/microliter. A robotic system automatically dispenses 2 microliters of each compound solution into individual wells of the prepared test units. Each treatment is replicated 3 times. After application, plates are allowed to dry 5-6 hours in a fume hood. When dry, the plates are covered with a matching lid and held overnight in a sealed container prior to infestation. Infestation: One day after application, each treated well is infested with 3-5, second instar cockroaches. Holding and assessment: Once infested, the plates are covered with a clear plastic lid. The plates are stacked and held in an incubator at 29° C. After 6 and 13 days respectively, each well is examined by means of a dissecting microscope for insecticidal effects.

[11] = tested on: Western Tarnished Plant Bug Lygus hesperus; assay: Insecticidal assay 13, western tarnished plant bug, sprayed egg-infested snow pea pods; details: L. hesperus eggs and emergent nymphs; airbrush spray on egg-infested snow pea pods; assessed after 10 days
Procedure: 13. Insecticidal Assay for Western Tarnished Plant Bug Lygus hesperus:
Objective: Assessment of the insecticidal activity of compounds against L. hesperus through egg contact and contact/ingestion activity on emergent nymphs.
Test Unit preparation: Female lygus are allowed to oviposit on snow pea pods, these pods are then placed in plastic Petri dishes.
Formulation and application: Compounds are dissolved in acetone and further dilutes with water containing 0.025% Tween 20. The solutions are sprayed on the Petri dishes and the egg-infested snow pea pods using an airbrush.
Holding and assessment: The Petri dishes are held for 10 days under controlled conditions at which time the emerging nymphs are assessed for insecticidal effects.

[12] = tested on: Cotton Aphid Aphis gossypii; assay: Insecticidal assay 14, cotton aphid, foliar spray on squash; details: A. gossypii all life stages on squash; 50 and 5 parts per million spray solutions; assessed 3 days after treatment
Procedure: 14. Insecticidal Assay for Cotton Aphid Aphis gossypii:
Objective: To assess the insecticidal activity of compounds against A. gossypii through contact and ingestion.
(§8) Formulation and application: One (1) milligram of each technical synthetic organic compound was dissolved in 1 milliliters of a 90:10 acetone:ethanol solvent. This 1 milliliter of chemical solution was added to 19 milliliters of distilled water containing 0.05% Tween 20 surfactant to produce a 50 parts per million spray solution. A 5 part per million solution was then prepared from the 50 part per million stock.
Test unit preparation and infestation: One week old ‘Crookneck’ squash plants, trimmed to one cotyledon per plant, are infested with cotton aphids (all life stages). Sections of heavily infested colony squash leaves were placed on the untreated squash cotyledons 16-20 hrs prior to spraying. As the infested sections dried out, the aphids moved to the succulent plant material. Plants are examined to ensure even infestation prior to application.
(§9) Application: The plants are sprayed on both sides of all leaves with a hand-held atomizing sprayer until solutions are completely used. […]
Holding and assessment: The plants are allowed to air dry and are then held for 3 days in a controlled room at 26° C. and 40% relative humidity prior to grading. 3 days after treatment the aphids are assessed for insecticidal effects.

[13] = tested on: Green Peach Aphid Myzus persicae; assay: Insecticidal assay 15, green peach aphid, foliar spray on cabbage seedlings; details: M. persicae on cabbage seedlings; 50 and 5 parts per million spray solutions; assessed 3 days after treatment
Procedure: 15. Insecticidal Assay for Green Peach Aphid Myzus persicae:
Objective: To assess the insecticidal activity of compounds against M. persicae through contact and ingestion.
as §8
Test unit preparation and infestation: Cabbage seedlings, with 2 to 3 first true leaves emerged (12 days after planting) are culled to 1 plant per 3 inch pot. Treatments consisted of 4 replicates. Four days prior to application, heavily infested colony turnip leaves are shaken above the untreated plants. Shaking dislodges the aphids and they migrate to succulent plant material. Plants are examined to ensure even infestation prior to application.
as §9
Holding and assessment: The plants are allowed to air dry and are then held for 3 days in a controlled room at 26° C. and 40% relative humidity. 3 days after treatment the aphids are assessed for insecticidal effects.

Measured: insecticidal activity

N#Cc1c(NNc2c(Cl)cc(C(F)(F)F)cc2Cl)nc(C(F)(F)F)nc1C(F)(F)F [Compound 11, 4-[N′-(2,6-dichloro-4-trifluoromethyl-phenyl)-hydrazino]-2,6-bis-trifluoromethyl-pyrimidine-5-carbonitrile]
significant insecticidal activity: all assays above

CN(Nc1nc(C(F)(F)F)nc(C(F)(F)F)c1C#N)c1ccc(C#N)cn1 [Compound 30]
significant insecticidal activity: [2]
